Source: patent publication US20260116868A1 (Arcus Biosciences, Inc., priority 2023, published 2026)

Target: T1, Cbl-b (Homo sapiens, UniProt Q13191)
T1 construct: biotin (biotinylated protein)
Assay: Cbl-b probe displacement HTRF binding assay
Settings: 0.4 nM Cbl-b, 150 nM BODIPY probe
How it was run: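 Binding IC50 from four-parameter fit of HTRF signal loss, normalised to DMSO (0%) and no-protein (100%) wells. Biotinylated Cbl-b 0.4 nM was preincubated 60 min with compound (20-point 1:2 dilution) before 15 min with 150 nM BODIPY probe; Tb-streptavidin detection.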

T1 sequence (Q13191 whole entry, species assumed): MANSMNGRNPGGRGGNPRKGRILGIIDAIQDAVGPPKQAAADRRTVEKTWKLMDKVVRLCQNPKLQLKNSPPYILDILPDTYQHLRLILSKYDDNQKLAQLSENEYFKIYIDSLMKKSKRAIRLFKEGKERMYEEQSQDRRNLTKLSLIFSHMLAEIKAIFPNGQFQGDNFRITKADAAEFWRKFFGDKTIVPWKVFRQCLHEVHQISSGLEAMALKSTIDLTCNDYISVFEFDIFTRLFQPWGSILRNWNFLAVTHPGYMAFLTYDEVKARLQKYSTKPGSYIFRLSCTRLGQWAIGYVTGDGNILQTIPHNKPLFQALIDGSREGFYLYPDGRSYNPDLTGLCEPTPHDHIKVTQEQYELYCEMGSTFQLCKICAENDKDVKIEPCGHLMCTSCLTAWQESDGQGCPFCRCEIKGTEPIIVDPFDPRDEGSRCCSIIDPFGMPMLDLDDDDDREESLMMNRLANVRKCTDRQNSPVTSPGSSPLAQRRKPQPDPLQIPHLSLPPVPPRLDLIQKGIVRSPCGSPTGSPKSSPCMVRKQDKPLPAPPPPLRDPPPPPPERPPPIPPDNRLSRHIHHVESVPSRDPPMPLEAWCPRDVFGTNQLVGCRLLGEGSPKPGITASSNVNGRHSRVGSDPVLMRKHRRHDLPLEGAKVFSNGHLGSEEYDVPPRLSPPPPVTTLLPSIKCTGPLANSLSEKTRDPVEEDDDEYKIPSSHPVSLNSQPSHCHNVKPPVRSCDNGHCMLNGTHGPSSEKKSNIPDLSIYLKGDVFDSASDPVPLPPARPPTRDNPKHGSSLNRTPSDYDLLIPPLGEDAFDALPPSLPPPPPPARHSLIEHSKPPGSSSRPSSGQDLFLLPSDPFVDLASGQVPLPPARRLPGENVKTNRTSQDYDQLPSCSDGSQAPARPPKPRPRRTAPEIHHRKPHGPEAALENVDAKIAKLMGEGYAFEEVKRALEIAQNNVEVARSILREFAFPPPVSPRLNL

| IC50 | SMILES |
| --- | --- |
| < 100 nM | CCOc1cc(-c2ccc(Cl)cc2C(=O)N2CC(F)(F)C2)cc(NC(=O)c2cc(CN[C@@H](C)COC)cn(C3CC3)c2=O)n1 [Example 238] |
| < 100 nM | Cn1cc(CNC[C@@H]2CCCO2)cc(C(=O)Nc2cc(-c3ccc(OC(F)F)cc3C(=O)N3CC(F)(F)C3)cc(C3CC3)n2)c1=O [Example 185] |
| < 100 nM | C[C@H](NCc1cc(C(=O)Nc2cc(-c3ccc(C#N)cc3C(=O)N3CC(F)(F)C3)cc(C3CC3)n2)c(=O)n(C2CC2)c1)C1CCCC1 [Example 358] |
| < 100 nM | COc1ccc(-c2cc(NC(=O)c3cc(CNC[C@H](C)OC)cn(C)c3=O)nc(OC(C)C)c2)c(C(=O)N2CC(F)(F)C2)c1 [Example 308] |
| < 100 nM | CC(C)Oc1cc(-c2ccc(C#N)cc2C(=O)N2CC(F)(F)C2)cc(NC(=O)c2cc(CNC[C@@H]3COCCO3)cn(C)c2=O)n1 [Example 386] |
| < 100 nM | CCNc1cc(-c2ccc(OC(F)F)cc2C(=O)N2CC(F)C2)cc(NC(=O)c2cc(CN[C@@H](C)C3CCC3)cn(C)c2=O)n1 [Example 103] |
| < 100 nM | CO[C@@H](C)CNCc1cc(C(=O)Nc2cc(-c3ccc(Cl)cc3C(=O)N3CC[C@@H]3C)cc(C3CC3)n2)c(=O)n(C2CC2)c1 [Example 314] |
| < 100 nM | CC(C)[C@H](C)NCc1cc(C(=O)Nc2cc(-c3ccc(C#N)cc3C(=O)N3CC(F)(F)C3)cc(C3CC3)n2)c(=O)n(C2CC2)c1 [Example 362] |
| < 100 nM | CO[C@@H](C)CNCc1cc(C(=O)Nc2cc(-c3ccc(F)cc3C(=O)N3CC(F)(F)C3)cc(NC(C)C)n2)c(=O)n(C2CC2)c1 [Example 357] |
| < 100 nM | CO[C@@H](C)CNCc1cc(C(=O)Nc2cc(-c3ccc(OC(F)F)cc3C(=O)N3CC(F)C3)cc(OC(C)C)n2)c(=O)n(C2CC2)c1 [Example 252] |
| < 100 nM | O=C(Nc1cc(-c2ccc(Cl)cc2C(=O)N2CC(F)(F)C2)cc(C2CC2)n1)c1cc(CNCCCF)cn(C2CC2)c1=O [Example 136, N-(4-{4-chloro-2-[(3,3-difluoro-1-azetidinyl)carbonyl]phenyl}-6-cyclopropyl-2-pyridyl)-1-cyclopropyl-5-[(3-fluoropropylamino)methyl]-2-oxo-1,2-dihydronicotinamide] |
| < 100 nM | CC(C)CNCc1cc(C(=O)Nc2cc(-c3ccc(OC(F)F)cc3C(=O)N3CC(F)C3)cc(OC(C)C)n2)c(=O)n(C2CC2)c1 [Example 267] |
| < 100 nM | CO[C@@H](C)[C@H](C)NCc1cc(C(=O)Nc2cc(-c3c(F)cc(C#N)cc3C(=O)N3CC(F)(F)C3)cc(OC(C)C)n2)c(=O)n(C)c1 [Example 226] |
| < 100 nM | COc1ccc(-c2cc(NC(=O)c3cc(CN[C@@H](C)C4CCC4)cn(C)c3=O)nc(C3CC3)c2)c(C(=O)N2CC(F)C2)c1 [Example 296] |
| < 100 nM | CC(C)CNCc1cc(C(=O)Nc2cc(-c3ccc(C#N)cc3C(=O)N3CC(F)C3)cc(OC(C)C)n2)c(=O)n(C)c1 [Example 272] |
| < 100 nM | COCCNCc1cc(C(=O)Nc2cc(-c3ccc(C#N)cc3C(=O)N3CC(F)(F)C3)cc(C3CC3)n2)c(=O)n(C)c1 [Example 187] |
| < 100 nM | CCOc1cc(-c2ccc(Cl)cc2C(=O)N2CC(F)(F)C2)cc(NC(=O)c2cc(CNCC3(F)CCC3)cn(C3CC3)c2=O)n1 [Example 121, N-(4-{4-chloro-2-[(3,3-difluoro-1-azetidinyl)carbonyl]phenyl}-6-ethoxy-2-pyridyl)-1-cyclopropyl-5-({[(1-fluorocyclobutyl)methyl]amino}methyl)-2-oxo-1,2-dihydronicotinamide] |
| < 100 nM | COC[C@H](C)NC(C)c1cc(C(=O)Nc2cc(-c3ccc(C#N)cc3C(=O)N3CC(F)(F)C3)cc(C3CC3)n2)c(=O)n(C2CC2)c1 (some centres unmarked) [Example 335] |
| < 100 nM | CO[C@@H](C)CNCc1cc(C(=O)Nc2cc(-c3ccc(C#N)cc3C(=O)N3CC(F)(F)C3)cc(C3CC3)c2)c(=O)n(C2CC2)c1 [Example 393] |
| < 100 nM | CC(C)CNCc1cc(C(=O)Nc2cc(-c3ccc(OC(F)F)cc3C(=O)N3CC(F)(F)C3)cc(C3CC3)n2)c(=O)n(C)c1 [Example 109, N-[6-cyclopropyl-4-[2-(3,3-difluoroazetidine-1-carbonyl)-4-(difluoromethoxy)phenyl]pyridin-2-yl]-1-methyl-5-[(2-methylpropylamino)methyl]-2-oxopyridine-3-carboxamide] |
| < 100 nM | CC(C)Nc1cc(-c2ccc(OC(F)F)cc2C(=O)N2CC(F)C2)cc(NC(=O)c2cc(CN[C@@H](C)C3CCC3)cn(C)c2=O)n1 [Example 278] |
| < 100 nM | CC(C)Oc1cc(-c2ccc(F)cc2C(=O)N2CC(F)(F)C2)cc(NC(=O)c2cc(CNCC3CC3)cn(C3CC3)c2=O)n1 [Example 139, N-(4-{2-[(3,3-difluoro-1-azetidinyl)carbonyl]-4-fluorophenyl}-6-isopropoxy-2-pyridyl)-1-cyclopropyl-5-{[(cyclopropylmethyl)amino]methyl}-2-oxo-1,2-dihydronicotinamide] |
| < 100 nM | CCOc1cc(-c2ccc(C#N)cc2C(=O)N2CC(F)(F)C2)cc(NC(=O)c2cc(CNC[C@H](C)OC)cn(C3CC3)c2=O)n1 [Example 206] |
| < 100 nM | COCCNCc1cc(C(=O)Nc2cc(-c3ccc(Cl)cc3C(=O)N(C)C)cc(C3CC3)n2)c(=O)n(C2CC2)c1 [Example 307] |
| < 100 nM | COCCNCc1cc(C(=O)Nc2cc(-c3ccc(Cl)cc3C(=O)N3CC4(COC4)C3)cc(C3CC3)n2)c(=O)n(C2CC2)c1 [Example 306] |

| IC50 | SMILES |
| --- | --- |
| < 100 nM | Cn1cc(CNC[C@@H]2CCCO2)cc(C(=O)Nc2cc(-c3ccc(C#N)cc3C(=O)N3CC(F)(F)C3)cc(C3CC3)n2)c1=O [Example 173] |
| < 100 nM | N#Cc1ccc(-c2cc(NC(=O)c3cc(CNC[C@@H]4CCCCO4)cn(C4CC4)c3=O)nc(C3CC3)c2)c(C(=O)N2CC(F)(F)C2)c1 [Example 366] |
| < 100 nM | CCOc1cc(-c2c(F)cc(Cl)cc2C(=O)N2CC(F)(F)C2)cc(NC(=O)c2cc(CN[C@@H](C)C3CCC3)cn(C3CC3)c2=O)n1 [Example 207] |
| < 100 nM | COc1ccc(-c2cc(NC(=O)c3cc(CN[C@@H](C)C4CCC4)cn(C4CC4)c3=O)nc(C3CC3)c2)c(C(=O)N2CC(F)C2)c1 [Example 260] |
| < 100 nM | CC(C)Oc1cc(-c2ccc(Cl)cc2C(=O)N2CC(F)C2)cc(NC(=O)c2cc(CN[C@@H](C)C3CCC3)cn(C3CC3)c2=O)n1 [Example 256] |
| < 100 nM | O=C(Nc1cc(-c2ccc(Cl)cc2C(=O)N2CC(F)(F)C2)cc(C2CC2)n1)c1cc(CNCC2CC2)cn(C2CC2)c1=O [Example 406] |
| < 100 nM | COc1ccc(-c2cc(NC(=O)c3cc(CN[C@@H](C)C4CCC4)cn(C4CC4)c3=O)nc(C3CC3)c2)c(C(=O)N2CC(F)(F)C2)c1 [Example 295] |
| < 100 nM | CC(C)CNCc1cc(C(=O)Nc2cc(-c3ccc(OC(F)F)cc3C(=O)N3CC(F)C3)cc(OC(C)C)n2)c(=O)n(C)c1 [Example 294] |
| < 100 nM | CO[C@@H](C)CNCc1cc(C(=O)Nc2cc(-c3ccc(Cl)cc3C(=O)N3CC(F)(F)C3)cc(OCC(F)F)n2)c(=O)n(C2CC2)c1 [Example 162] |
| < 100 nM | CC(C)Oc1cc(-c2ccc(OC(F)F)cc2C(=O)N2CC(F)C2)cc(NC(=O)c2cc(CN[C@@H](C)C3CCC3)cn(C3CC3)c2=O)n1 [Example 249] |
| < 100 nM | CCOc1cc(-c2ccc(OC(F)F)cc2C(=O)N2CC(F)C2)cc(NC(=O)c2cc(CNC[C@H](C)OC)cn(C3CC3)c2=O)n1 [Example 104, N-(4-{4-Difluoromethoxy-2-[(3-fluoro-1-azetidinyl)carbonyl]phenyl}-6-ethoxy-2-pyridyl)-5-{[(S)-2-methoxypropylamino]methyl}-1-cyclopropyl-2-oxo-1,2-dihydronicotinamide] |
| < 100 nM | CCNc1cc(-c2ccc(OC(F)F)cc2C(=O)N2CC(F)C2)cc(NC(=O)c2cc(CNC[C@@H]3CCCO3)cn(C)c2=O)n1 [Example 316] |
| < 100 nM | COc1ccc(-c2cc(NC(=O)c3cc(CNCC(C)C)cn(C4CC4)c3=O)nc(OC(C)C)c2)c(C(=O)N2CC(F)C2)c1 [Example 281] |
| < 100 nM | CO[C@@H](C)CNCc1cc(C(=O)Nc2cc(-c3ccc(Cl)cc3C(=O)N3CC(F)C3)cc(NC(C)C)n2)c(=O)n(C2CC2)c1 [Example 258] |
| < 100 nM | CC(C)Nc1cc(-c2c(F)cc(Cl)cc2C(=O)N2CC(F)(F)C2)cc(NC(=O)c2cc(CNC[C@@H]3CCCO3)cn(C3CC3)c2=O)n1 [Example 208] |
| < 100 nM | Cc1ccc(-c2cc(NC(=O)c3cc(CNCC(C)C)cn(C4CC4)c3=O)nc(OC(C)C)c2)c(C(=O)N2CC(F)C2)c1 [Example 287] |
| < 100 nM | N#Cc1ccc(-c2cc(NC(=O)c3cc(CN[C@H]4CCC[C@@H]4O)cn(C4CC4)c3=O)nc(C3CC3)c2)c(C(=O)N2CC(F)(F)C2)c1 [Example 409] |
| < 100 nM | N#Cc1ccc(-c2cc(NC(=O)c3cc(CNC[C@@H]4COCCO4)cn(C4CC4)c3=O)nc(C3CC3)c2)c(C(=O)N2CC(F)(F)C2)c1 [Example 369] |
| < 100 nM | CO[C@@H](C)CNCc1cc(C(=O)Nc2cc(-c3ccc(C#N)cc3C(=O)N3CC(F)(F)C3)cc(C3CC3)n2)c(=O)n(CC(F)(F)F)c1 [Example 174] |
| < 100 nM | C[C@H]1CCCN(Cc2cc(C(=O)Nc3cc(-c4ccc(C#N)cc4C(=O)N4CC(F)(F)C4)cc(C4CC4)n3)c(=O)n(C3CC3)c2)C1 [Example 399] |
| < 100 nM | CC(C)Oc1cc(-c2ccc(OC(F)F)cc2C(=O)N2CC(F)C2)cc(NC(=O)c2cc(CNC[C@@H]3CCCO3)cn(C3CC3)c2=O)n1 [Example 280] |
| < 100 nM | CCOc1cc(-c2ccc(C#N)cc2C(=O)N2CC(F)(F)C2)cc(NC(=O)c2cc(CNC[C@@H]3CCCO3)cn(C)c2=O)n1 [Example 183] |
| < 100 nM | COCCNCc1cc(C(=O)Nc2cc(-c3c(F)cc(C#N)cc3C(=O)N3CC(F)(F)C3)cc(C3CC3)n2)c(=O)n(C2CC2)c1 [Example 237] |
| < 100 nM | CC(C)Nc1cc(-c2ccc(Cl)cc2C(=O)N2CC(F)(F)C2)cc(NC(=O)c2cc(CNC[C@@H]3CCCO3)cn(C3CC3)c2=O)n1 [Example 223] |
| < 100 nM | C[C@H](NCc1cc(C(=O)Nc2cc(-c3ccc(OC(F)F)cc3C(=O)N3CC(F)(F)C3)cc(C3CC3)n2)c(=O)n(C2CC2)c1)C1CCC1 [Example 327] |
